# US4087416A, “New heptapeptides and methods for their production” (Parke, Davis & Company, priority 1976, dated 1978)
# System: LRF (luteinizing hormone releasing factor) induced luteinizing hormone (LH) release
# Test: In vitro LRF antagonist test in rat anterior pituitary cell cultures
# Assay type: cell-based
# Source text: Heptapeptides of this invention were screened for LRF antagonist activity in vitro using rat anterior pituitary cell cultures as described by Vale et. al. [Endocrinology, 91, 562 (1972)]. The inhibition of LRF (luteinizing hormone releasing factor) induced luteinizing hormone (LH) release into the culture medium is the endpoint in this in vitro bioassay.
# [1] = Molar Conc. 1×10^-6, first experiment (LRF 5×10^-10)
# [2] = Molar Conc. 1×10^-7, first experiment (LRF 5×10^-10)
# [3] = Molar Conc. 1×10^-8, first experiment (LRF 5×10^-10)
# [4] = Molar Conc. 3.5×10^-7, first experiment (LRF 5×10^-10)
# [5] = Molar Conc. 3.5×10^-8, first experiment (LRF 5×10^-10)
# [6] = Molar Conc. 1×10^-7, second experiment (LRF 3.5×10^-10)
# [7] = Molar Conc. 2×10^-7, second experiment (LRF 3.5×10^-10)
# [8] = Molar Conc. 3.5×10^-7, second experiment (LRF 3.5×10^-10)
substance,measurement,setting,value
"LRF Control: luteinizing hormone releasing factor, also referred to as luteinizing hormone releasing hormone; stimulates the secretion of luteinizing hormone (QHWSYGLRPG; Gonadoliberin-1; UniProt P01148 24-33, looked up) [reference compound]",LH Value,"LRF alone, Molar Conc. 3.5×10^-10, second experiment",40.01 ng/mL
same,LH Value,"LRF alone, Molar Conc. 5×10^-10, first experiment",38.48 ng/mL
N^α -t-Butoxycarbonyl-L-prolyl-N^im -benzyl-L-histidyl-N^im -benzyl L-histidyl-O-benzyl-L-seryl-O-benzyl-L-tyrosyl-L-tryptophyl-D-alanine N-ethylamide,% LH Release Inhibition,[1],101%
same,LH Value,[1],11.36 ng/mL
same,% LH Release Inhibition,[2],77%
same,LH Value,[2],17.83 ng/mL
same,% LH Release Inhibition,[3],24%
same,LH Value,[3],31.92 ng/mL
same,% LH Release Inhibition,[4],99%
same,LH Value,[4],11.90 ng/mL
same,% LH Release Inhibition,[5],55%
same,LH Value,[5],23.65 ng/mL
N^α -t-Butoxycarbonyl-L-prolyl-N^im -benzyl-L-histidyl-N^im -benzyl-L-histidyl-O-benzyl-L-seryl-O-benzyl-L-tyrosyl-L-tryptophyl-D-alanine methyl ester,% LH Release Inhibition,[6],65%
same,LH Value,[6],23.32 ng/mL
same,% LH Release Inhibition,[7],58%
same,LH Value,[7],24.98 ng/mL
same,% LH Release Inhibition,[8],74%
same,LH Value,[8],20.80 ng/mL
